Source: patent US20060247223A1, “Non-imidazole alkylamines as histamine H3- receptor ligands and their therapeutic applications” (priority 1998, published 2006)
Structures can show the parent of a compound that is named as a salt.

Biological target: T1, H3 receptor (Rattus norvegicus, UniProt Q9QYN8)
T1 construct: release of neosynthesized tritiated histamine from rat cerebral cortex synaptosomes; from tissue; host or cells: rat cerebral cortex synaptosomes
Assay: release of neosynthesized tritiated histamine from rat cerebral cortex synaptosomes
Type: biochemical
Settings: H3 receptor, rat cerebral cortex synaptosomes, reversal of (R)α-methylhistamine inhibition of tritiated histamine release; read-out: Ki

T1 sequence (Q9QYN8 whole entry): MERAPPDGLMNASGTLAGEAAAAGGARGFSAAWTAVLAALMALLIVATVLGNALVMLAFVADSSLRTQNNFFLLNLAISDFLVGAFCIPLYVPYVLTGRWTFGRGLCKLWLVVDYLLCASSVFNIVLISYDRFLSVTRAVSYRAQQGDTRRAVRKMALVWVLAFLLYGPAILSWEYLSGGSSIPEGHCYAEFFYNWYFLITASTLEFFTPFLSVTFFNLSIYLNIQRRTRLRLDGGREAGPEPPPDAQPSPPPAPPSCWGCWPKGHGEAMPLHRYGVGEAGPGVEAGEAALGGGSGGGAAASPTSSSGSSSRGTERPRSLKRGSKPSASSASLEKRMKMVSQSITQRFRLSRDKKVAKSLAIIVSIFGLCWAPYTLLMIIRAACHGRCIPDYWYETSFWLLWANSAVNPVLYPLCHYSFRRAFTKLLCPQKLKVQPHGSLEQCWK

Row | Compound | Ki [nM]
1 | CCN(CC)CCCOc1ccc(C(C)O)cc1 (centres unmarked) [Example 63, N-3-[4-(1-hydroxyethyl)-phenoxy]-propyl-diethylamine] | 60 ± 18

Biological target: T2, H3 receptor (Mus musculus, UniProt P58406)
T2 construct: estimated in vivo by the measurement of the tele-methylhistamine level variations in the brain of mice; from tissue; host or cells: mouse brain, in vivo after p.o. administration
Assay: tele-methylhistamine level variations in the brain of mice after p.o. administration
Type: in vivo
Settings: mouse, po, brain tele-methylhistamine level, dose responsible for an half maximal effect
From the text: At various time after p.o. administration of the. compounds, the effect of agonists and antagonists are evidenced by the decrease and increase respectively in telemethylhistamine level induced.
The changes are compared to those induced by reference compounds given in high dosage and this allows the calculation of the ED50 value for each compound which correspond to the dose responsible for an half maximal effect.

T2 sequence (P58406 whole entry): as the sequence (Q9QYN8 whole entry) above, with T15A, A286T, A290G, R387H, I389V counted along it

Row | Compound | ED50 [mg/kg]
2 | O=C(c1ccc(OCCCN2CCCCC2)cc1)C1CC1 [Example 76, 1-[3-(4-cyclopropanecarbonylphenoxy)propyl]piperidine] | 0.18
3 | C[C@H]1C[C@H](C)CN(CCCOc2ccc(C(=O)C3CC3)cc2)C1 (relative stereo) [Example 101, 1-[3-(4-cyclopropanecarbonylphenoxy)propyl]-trans-3,5 dimethylpiperidine] | 0.17
4 | CCC(=O)c1ccc(OCCCN2CCCC(C)C2)cc1 (centres unmarked) [Example 88, 1-[3-(4-propionylphenoxy)propyl]-3-methylpiperidine] | 0.14
5 | CCCC(=O)c1ccc(OCCCN2CCCCC2)cc1 [Example 74, 1-[3-(4-buyrylphenoxy)propyl]piperidine] | 0.21

Same assay, conditions: tele-methylhistamine level in brain, dose for half maximal effect

Row | Compound | ED50 (mg/kg/p.o.)
6 | CCN(CC)CCCOc1ccc(C(C)O)cc1 (centres unmarked) [Example 63, N-3-[4-(1-hydroxyethyl)-phenoxy]-propyl-diethylamine] | 0.45

Tested on: not given
Assay: not given
Settings: not given

Row | Compound | melting point [°C]
7 | O=[N+]([O-])c1ccc(OCCCN2CCCCC2)cc1 (as salt: oxalate) [Example 109, 1-[3-(4-nitrophenoxy)propyl]piperidine] | 148 to 151
8 | CCN(CC)CCCCCOc1ccc(C#N)cc1 (as salt: oxalate) [Example 51, 1-[5-(4-cyanophenoxy)-pentyl]-diethylamine] | 120 to 122
9 | CCC(=NOC)c1ccc(OCCCN2CCC(C)CC2)cc1 (as salt: oxalate) [Example 99, 1-[3-(4-propionylphenoxy)propyl]-4-methylpiperidine methoxime] | 179 to 181
10 | CC(=O)c1ccc(OC[C@H](C)CN2CCCCC2)cc1 (as salt: oxalate) [Example 77, 1-[3-(4-acetylphenoxy)-2-R-methylpropyl]piperidine] | 149 to 151
11 | CC1CCCCN1CCCOc1ccc([N+](=O)[O-])cc1 (centres unmarked) (as salt: oxalate) [Example 85, 1-[3-(4-nitrophenoxy)propyl]-2-methylpiperidine] | 151 to 153
12 | Brc1ccc(OCCCN2CCCCC2)cc1 (as salt: oxalate) [Example 108, 1-[3-(4-bromophenoxy)propyl]piperidine] | 175 to 177
13 | Fc1ccc(OCCCCCN2CCCC2)cc1 (as salt: oxalate) [Example 37, 1-[5-(4-fluorophenoxy)-pentyl]-pyrrolidine] | 149 to 150
14 | Nc1ccc(OCCCCCN2CCCC2)cc1 (as salt: oxalate) [Example 40, 1-[5-(4-aminophenoxy)-pentyl]-pyrrolidine] | 120 to 122
15 | Clc1cccc(OCCCCCN2CCCC2)c1 (as salt: oxalate) [Example 25, 1-[5-(3-chlorophenoxy)-pentyl]-pyrrolidine] | 131 to 132
16 | C[C@@H]1C[C@H](C)CN(CCCOc2ccc(C#N)cc2)C1 (as salt: oxalate) [Example 93, 1-[3-(4-cyanophenoxy)propyl]-cis-3,5-dimethylpiperidine] | 161 to 163
17 | C[C@@H]1C[C@H](C)CN(CCCCCOc2ccccc2)C1 (as salt: oxalate) [Example 13, 1-(5-phenoxypentyl)-3,5-cis-dimethyl-piperidine] | 154 to 155
18 | c1ccc(OCCCCCN2CCCCCC2)cc1 (as salt: oxalate) [Example 5, N-(5-phenoxypentyl)-hexamethyleneimine] | 132 to 134
19 | CCN(CC)CCCOc1ccc([N+](=O)[O-])cc1 (as salt: oxalate) [Example 42, N-[3-(4-nitrophenoxy)-propyl]-diethylamine] | 160 to 161
20 | O=C(Nc1ccc(OCCCCCN2CCCC2)cc1)c1ccccc1 (as salt: oxalate) [Example 49, 1-[5-(4-N-benzamidophenoxy)-pentyl]-pyrrolidine] | 176 to 178
21 | CC[C@@H]1CC[C@H](C)N(CCCOc2ccc(C#N)cc2)C1 (relative stereo) (as salt: oxalate) [Example 91, 1-[3-(4-cyanophenoxy)propyl]-cis-2-methyl-5-ethylpiperidine] | 158 to 159
22 | CCN(C)CCCCCOc1ccccc1 (as salt: oxalate) [Example 3, N-methyl-N-(5-phenoxypentyl)-ethylamine] | 122 to 124
23 | CC(=O)c1ccc(OCCCN2CC=CCC2)cc1 (as salt: oxalate) [Example 75, 1-[3-(4-acetylphenoxy)-propyl]-1,2,3,6-tetrahydropyridine] | 143 to 144
24 | O=C(c1ccccc1)c1ccc(OCCCCCN2CCCC2)cc1 (as salt: oxalate) [Example 44, 1-[5-(4-benzoylphenoxy)-pentyl]-pyrrolidine] | 141 to 142
25 | C[C@H]1C[C@H](C)CN(CCCOc2ccc(C#N)cc2)C1 (relative stereo) (as salt: oxalate) [Example 100, 1-[3-(4-cyanophenoxy)propyl]-trans-3,5-dimethylpiperidine] | 163 to 165
26 | CCCC(=O)c1ccc(OCCCN2CCCCC2)cc1 (as salt: oxalate) [Example 74, 1-[3-(4-buyrylphenoxy)propyl]piperidine] | 138 to 139
27 | O=C(c1ccc(OCCCN2CCCCC2)cc1)C1CCCC1 (as salt: oxalate) [Example 90, 1-[3-(4-cyclopentylcarbonylphenoxy)propyl]piperidine] | 143 to 145
28 | Clc1ccc(OCCCCCN2CCCC2)cc1 (as salt: oxalate) [Example 19, 1-[5-(4-chlorophenoxy)-pentyl]-pyrrolidine] | 139 to 141

Row | Compound | melting point [°C]
29 | CCC(=NO)c1ccc(OCCCN2CCC(C)CC2)cc1 (as salt: oxalate) [Example 107] | 157 to 160
30 | CCOC(=O)C1CCN(CCCCCOc2ccccc2)CC1 (as salt: oxalate) [Example 15, 4-carboethoxy-1-(5-phenoxypentyl)-piperidine] | 149 to 150
31 | CCC(=O)c1ccc(OCCCN2CCCCC2C)cc1 (centres unmarked) (as salt: oxalate) [Example 95, 1-[3-(4-propionylphenoxy)propyl]-2-methylpiperidine] | 92 to 94
32 | CCN(CC)CCCCOc1ccc(C#N)cc1 (as salt: oxalate) [Example 56, N-[4-(4-cyanophenoxy)-butyl]-diethylamine] | 143 to 145
33 | O=Cc1ccc(OCCCN2CCCCC2)cc1 (as salt: oxalate) [Example 71, 1-[3-(4-formylphenoxy)-propyl]-piperidine] | 152 to 153
34 | CCN(CC)CCCCCCOc1ccc(C#N)cc1 (as salt: oxalate) [Example 61, N-[6-(4-cyanophenoxy)-hexyl]-diethylamine] | 110 to 112
35 | CC(C)c1ccc(OCCCN2CCCCC2)cc1 (as salt: oxalate) [Example 111] | 131 to 134
36 | CCC(O)c1ccc(OCCCN2CCC(C)CC2)cc1 (centres unmarked) (as salt: oxalate) [Example 97, 1-{3-[4-(1-hydroxypropyl)phenoxy]propyl}-4-methylpiperidine] | 182 to 183
37 | C[C@@H]1CCC[C@H](C)N1CCCCCOc1ccccc1.Cl | 135 to 136
38 | c1ccc(OCCCCCCN2CCCC2)cc1 (as salt: oxalate) [Example 32, 1-(6-phenoxyhexyl)-pyrrolidine] | 146 to 147
39 | CC1CCCN(CCCOc2ccc([N+](=O)[O-])cc2)C1 (centres unmarked) (as salt: oxalate) [Example 83, 1-[3-(4-nitrophenoxy)propyl]-3-methylpiperidine] | 172 to 174
40 | CC(O)c1ccc(OCCCCCN2CCCC2)cc1 (centres unmarked) (as salt: oxalate) [Example 50, 1-{5-[4-(1-hydroxyethyl)-phenoxy]-pentyl}-pyrrolidine] | 102 to 104
41 | CC1CCCCN1CCCOc1ccc(C#N)cc1.Cl (centres unmarked) | 177 to 180
42 | COc1ccc(OCCCCCN2CCCC2)cc1 (as salt: oxalate) [Example 20, 1-[5-(4-methoxyphenoxy)-pentyl]-pyrrolidine] | 115 to 116
43 | CCCc1ccc(OCCCN2CCCCC2)cc1 (as salt: oxalate) [Example 113, 1-[3-(4-propylphenoxy)propyl]piperidine] | 121 to 124
44 | c1cc2c(c(OCCCCCN3CCCC3)c1)CCCC2 (as salt: oxalate) [Example 30, 1-{5-[1-(5,6,7,8-tetrahydronaphthyl)-oxy]-pentyl}-pyrrolidine] | 148 to 149
45 | N#Cc1ccc(OCCCCCN2CCCCC2)cc1 (as salt: oxalate) [Example 52, 1-[5-(4-cyanophenoxy)-pentyl]-piperidine] | 115 to 116
46 | CCC(=O)c1ccc(OCCCN2CCC(C)CC2)cc1 (as salt: oxalate) [Example 94, 1-[3-(4-propionylphenoxy)propyl]-4-methylpiperidine] | 163 to 165
47 | CC(=O)c1ccc(OCCCN2C[C@H](C)C[C@H](C)C2)cc1 (as salt: oxalate) [Example 70, 1-[3-(4-acetylphenoxy)-propyl]-3,5-cis-dimethyl-piperidine] | 174 to 175
48 | c1ccc2c(OCCCCCN3CCCC3)cccc2c1 (as salt: oxalate) [Example 24, 1-[5-(1-naphthyloxy)-pentyl]-pyrrolidine] | 160 to 163
49 | CCc1ccc(OCCCN2CCCCC2)cc1 (as salt: oxalate) [Example 114, 1-[3-(4-ethylphenoxy)propyl]piperidine] | 148 to 151
50 | CCCN(CC)CCCCCOc1ccccc1 (as salt: oxalate) [Example 6, N-ethyl-N-(5-phenoxypentyl)-propylamine] | 90 to 91
